Patent US12595253B2, “Benzamides of pyrazolylamino-pyrimidinyl derivatives, and compositions and methods thereof” (LYNK PHARMACEUTICALS CO. LTD., priority 2019, dated 2026)
Read-outs that look alike come from different tables or passages of the source.

Experiments:
Assay type in all cases: biochemical
[1] = target: T1, TYK2 (Homo sapiens, UniProt P29597); assay: TYK2 microfluidic kinase assay (Caliper EZ Reader II, FAM labeled peptide substrate); details: IC50 TYK2 ([…]) (1 mM ATP), TYK2 […], 1 mM ATP
T1 construct: purchased Carna Biosciences
Summary of the method: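 Human JAK enzymes in 50 mM HEPES, 0.01% Brij35, 10 mM MgCl2, 2 mM DTT, tuned to 10% conversion of FAM-peptide; compounds (3-fold dilutions, top 5 μM, 1% DMSO) pre-incubated 10 min. Reaction times: JAK1 120 min, JAK2 20 min, JAK2V617F 30 min, TYK2 10 min; EDTA stop, microfluidic conversion read, IC50 from % inhibition curves.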

[2] = target: T2, JAK1 (Homo sapiens, UniProt P23458); assay: JAK1 microfluidic kinase assay (Caliper EZ Reader II, FAM labeled peptide substrate)
T2 construct: purchased Carna Biosciences
Summary of the method: (§1)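 Microfluidic mobility-shift assay on Caliper EZ Reader II, FAM-labelled peptide phosphorylation, in 50 mM HEPES, 0.01% Brij35, 10 mM MgCl2, 2 mM DTT, 1% DMSO; enzyme conditions set for 10% substrate conversion.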

[3] = target: T3, JAK2 (Homo sapiens, UniProt O60674); assay: JAK2 microfluidic kinase assay (Caliper EZ Reader II, FAM labeled peptide substrate)
T3 construct: purchased Carna Biosciences
Summary of the method: as §1

[4] = target: T4, JAK2V617F (Homo sapiens, UniProt O60674, V617F); assay: JAK2V617F microfluidic kinase assay (Caliper EZ Reader II, FAM labeled peptide substrate); details: JAK2V617F 2.5 nM, 1 mM ATP
T4 construct: purchased Carna Biosciences
Summary of the method: as §1

[5] = IC50 JAK1 (5 nM) (1 m MATP), JAK1 5 nM, 1 mM ATP
[6] = IC50 JAK1 (10 nM) (Km ATP), JAK1 10 nM, Km ATP
[7] = IC50 JAK2 ([…]) (1 mM ATP), 1 mM ATP
[8] = IC50 JAK2 ([…]) (Km ATP), Km ATP

T4 sequence (O60674 whole entry V617F): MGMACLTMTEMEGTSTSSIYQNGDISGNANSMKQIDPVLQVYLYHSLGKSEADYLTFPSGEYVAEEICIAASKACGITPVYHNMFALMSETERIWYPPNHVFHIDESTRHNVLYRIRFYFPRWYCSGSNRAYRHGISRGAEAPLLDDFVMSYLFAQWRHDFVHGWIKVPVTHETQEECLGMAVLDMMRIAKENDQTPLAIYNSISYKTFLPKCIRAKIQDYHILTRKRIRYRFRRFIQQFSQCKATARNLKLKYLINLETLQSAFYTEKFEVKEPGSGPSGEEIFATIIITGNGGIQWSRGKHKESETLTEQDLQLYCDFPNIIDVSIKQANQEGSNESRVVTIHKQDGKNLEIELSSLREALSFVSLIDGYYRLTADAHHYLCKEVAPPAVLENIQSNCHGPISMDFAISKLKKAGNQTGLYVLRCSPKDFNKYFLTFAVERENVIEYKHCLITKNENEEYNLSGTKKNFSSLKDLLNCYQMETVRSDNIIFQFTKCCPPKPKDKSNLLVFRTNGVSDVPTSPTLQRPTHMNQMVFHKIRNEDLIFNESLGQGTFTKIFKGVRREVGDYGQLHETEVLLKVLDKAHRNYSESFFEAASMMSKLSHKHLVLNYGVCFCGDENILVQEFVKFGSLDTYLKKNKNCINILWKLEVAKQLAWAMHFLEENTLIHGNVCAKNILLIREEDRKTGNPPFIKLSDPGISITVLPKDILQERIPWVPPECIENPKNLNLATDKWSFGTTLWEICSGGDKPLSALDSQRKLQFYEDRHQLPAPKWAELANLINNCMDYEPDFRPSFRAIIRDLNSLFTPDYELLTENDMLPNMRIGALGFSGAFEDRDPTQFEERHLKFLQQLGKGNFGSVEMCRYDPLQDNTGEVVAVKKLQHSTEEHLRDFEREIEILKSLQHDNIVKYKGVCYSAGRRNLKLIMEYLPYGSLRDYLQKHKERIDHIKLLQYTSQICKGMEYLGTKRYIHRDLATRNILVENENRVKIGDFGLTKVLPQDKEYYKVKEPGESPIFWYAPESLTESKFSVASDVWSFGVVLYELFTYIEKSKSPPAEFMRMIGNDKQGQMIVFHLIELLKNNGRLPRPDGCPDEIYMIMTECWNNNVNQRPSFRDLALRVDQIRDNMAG
T3 sequence (O60674 whole entry): as the sequence (O60674 whole entry V617F) above, with F617V counted along it
T2 sequence (P23458 whole entry): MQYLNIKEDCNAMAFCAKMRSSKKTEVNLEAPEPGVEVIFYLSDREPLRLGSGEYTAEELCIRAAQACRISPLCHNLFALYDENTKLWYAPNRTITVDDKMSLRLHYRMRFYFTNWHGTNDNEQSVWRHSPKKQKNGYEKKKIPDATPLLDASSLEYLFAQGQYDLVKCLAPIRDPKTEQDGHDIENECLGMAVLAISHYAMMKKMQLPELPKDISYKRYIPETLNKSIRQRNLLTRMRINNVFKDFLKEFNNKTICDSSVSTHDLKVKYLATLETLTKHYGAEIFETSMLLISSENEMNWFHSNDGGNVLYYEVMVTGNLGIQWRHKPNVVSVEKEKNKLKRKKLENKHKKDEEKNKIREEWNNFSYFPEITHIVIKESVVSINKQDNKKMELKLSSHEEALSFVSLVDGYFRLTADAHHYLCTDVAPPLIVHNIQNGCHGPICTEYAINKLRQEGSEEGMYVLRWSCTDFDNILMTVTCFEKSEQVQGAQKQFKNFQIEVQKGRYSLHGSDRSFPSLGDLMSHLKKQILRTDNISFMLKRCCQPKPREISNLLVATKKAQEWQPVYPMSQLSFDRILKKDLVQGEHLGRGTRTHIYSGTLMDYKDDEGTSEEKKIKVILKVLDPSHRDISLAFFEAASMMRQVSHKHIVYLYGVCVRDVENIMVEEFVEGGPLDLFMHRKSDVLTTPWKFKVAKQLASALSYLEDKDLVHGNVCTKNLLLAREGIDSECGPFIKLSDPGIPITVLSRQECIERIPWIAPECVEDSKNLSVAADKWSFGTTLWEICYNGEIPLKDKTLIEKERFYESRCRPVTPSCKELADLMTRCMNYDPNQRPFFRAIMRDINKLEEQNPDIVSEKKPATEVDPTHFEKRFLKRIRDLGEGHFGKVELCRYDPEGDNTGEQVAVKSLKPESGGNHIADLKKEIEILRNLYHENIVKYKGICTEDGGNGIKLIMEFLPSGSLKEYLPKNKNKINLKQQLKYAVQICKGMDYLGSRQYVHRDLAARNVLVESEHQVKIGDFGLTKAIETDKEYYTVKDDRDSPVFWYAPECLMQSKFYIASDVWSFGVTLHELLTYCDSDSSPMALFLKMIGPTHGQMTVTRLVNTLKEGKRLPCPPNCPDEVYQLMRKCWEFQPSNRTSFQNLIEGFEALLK
T1 sequence (P29597 whole entry): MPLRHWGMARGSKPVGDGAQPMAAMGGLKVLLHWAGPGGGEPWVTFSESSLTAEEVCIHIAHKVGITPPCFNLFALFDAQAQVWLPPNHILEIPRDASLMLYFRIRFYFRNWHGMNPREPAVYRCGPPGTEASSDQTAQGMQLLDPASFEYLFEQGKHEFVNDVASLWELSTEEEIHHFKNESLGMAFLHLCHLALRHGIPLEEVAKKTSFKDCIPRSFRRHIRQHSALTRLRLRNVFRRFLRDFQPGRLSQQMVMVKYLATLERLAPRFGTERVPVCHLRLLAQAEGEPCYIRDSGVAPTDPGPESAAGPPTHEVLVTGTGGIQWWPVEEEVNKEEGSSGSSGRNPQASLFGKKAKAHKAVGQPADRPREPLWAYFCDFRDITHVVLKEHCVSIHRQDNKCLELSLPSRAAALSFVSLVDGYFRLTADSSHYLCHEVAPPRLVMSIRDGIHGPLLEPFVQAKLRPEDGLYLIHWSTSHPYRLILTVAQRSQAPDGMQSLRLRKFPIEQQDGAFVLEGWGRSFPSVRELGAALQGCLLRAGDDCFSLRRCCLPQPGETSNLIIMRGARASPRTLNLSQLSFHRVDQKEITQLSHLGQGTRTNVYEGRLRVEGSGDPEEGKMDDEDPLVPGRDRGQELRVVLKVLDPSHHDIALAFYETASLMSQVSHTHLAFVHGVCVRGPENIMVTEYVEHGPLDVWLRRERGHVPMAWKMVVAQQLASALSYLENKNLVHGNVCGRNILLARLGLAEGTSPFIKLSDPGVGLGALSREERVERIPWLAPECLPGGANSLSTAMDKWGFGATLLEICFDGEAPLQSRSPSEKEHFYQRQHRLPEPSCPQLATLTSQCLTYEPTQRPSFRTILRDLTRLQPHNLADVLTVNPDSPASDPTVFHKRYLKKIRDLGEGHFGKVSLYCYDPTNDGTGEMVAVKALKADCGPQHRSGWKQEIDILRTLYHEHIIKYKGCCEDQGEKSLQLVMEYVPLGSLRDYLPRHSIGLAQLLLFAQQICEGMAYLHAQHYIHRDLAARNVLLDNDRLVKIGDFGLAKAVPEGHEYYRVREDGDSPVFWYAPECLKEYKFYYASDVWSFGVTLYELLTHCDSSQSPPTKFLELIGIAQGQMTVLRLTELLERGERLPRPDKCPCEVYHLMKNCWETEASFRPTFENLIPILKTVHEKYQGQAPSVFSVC

IC50 [1] | IC50 [2, 5] | IC50 [2, 6] | IC50 [3, 7] | IC50 [3, 8] | IC50 [4] | IC50 ([2]; read-out: IC50 JAK1 (5 nM) (1 m MATP), JAK1 5 nM, 1 mM ATP) | SMILES
> 5 µM | > 5 µM | 1.89 µM | 4.52 µM | 0.149 µM | > 5 µM |  | CCNC(=O)c1ccc(-c2nc(Nc3cnn(C)c3)ncc2C)cc1 [Example 222, N-ethyl-4-(5-methyl-2-((1-methyl-1H-pyrazol-4-yl)amino)pyrimidin-4-yl)benzamide]
0.029 µM | 0.0112 µM |  | 0.00057 µM |  | 0.0452 µM |  | C[C@@H](C#N)NC(=O)c1ccc(-c2nc(Nc3cnn(C4CCN(C)CC4)c3)ncc2Cl)cc1 [Example 43, (S)-4-(5-Chloro-2-((1-(1-methylpiperidin-4-yl)-1H-pyrazol-4-yl)amino)pyrimidin-4-yl)-N-(1-cyanoethyl)benzamide]
0.00515 µM | 0.00845 µM |  | < 0.00025 µM |  | 0.00096 µM |  | Cc1cnc(Nc2cnn(C3CCN(C(=O)CO)CC3)c2)nc1-c1ccc(C(=O)N[C@@H](C)C#N)cc1 [Example 119, (S)—N-(1-cyanoethyl)-4-(2-((1-(1-(2-hydroxyacetyl)piperidin-4-yl)-1H-pyrazol-4-yl)amino)-5-methylpyrimidin-4-yl)benzamide]
> 5 µM | 3.94 µM |  | 1.45 µM |  | 4.54 µM |  | Cc1cnc(Nc2cnn(C)c2)nc1-c1ccc(C(=O)NC(C)C)cc1 [Example 223, N-isopropyl-4-(5-methyl-2-((1-methyl-1H-pyrazol-4-yl)amino)pyrimidin-4-yl)benzamide]
0.0629 µM | 0.00875 µM | 0.00173 µM | 0.043 µM | 0.00204 µM | 0.109 µM |  | Cc1cnc(Nc2cnn(CC#N)c2)nc1-c1ccc(C(=O)NCC#N)cc1 [Example 4, N-(Cyanomethyl)-4-(2-((1-(cyanomethyl)-1H-pyrazol-4-yl)amino)-5-methylpyrimidin-4-yl)benzamide]
0.0984 µM | 0.0118 µM |  | 0.0244 µM | 0.0007 µM |  |  | Cn1cc(Nc2ncc(Cl)c(-c3ccc(C(=O)NCC#N)cc3)n2)cn1 [Example 34, 4-(5-Chloro-2-((1-methyl-1H-pyrazol-4-yl)amino)pyrimidin-4-yl)-N-(cyanomethyl)benzamide]
0.146 µM | 0.0189 µM |  | 0.0412 µM | 0.00148 µM |  |  | C[C@@H](C#N)NC(=O)c1ccc(-c2nc(Nc3cnn(C)c3)ncc2Cl)cc1 [Example 125, (S)-4-(5-chloro-2-((1-methyl-1H-pyrazol-4-yl)amino)pyrimidin-4-yl)-N-(1-cyanoethyl)benzamide]
0.00166 µM |  |  | < 0.00025 µM |  |  | 0.0104 µM | Cc1cnc(Nc2cnn(C3CC(C)(C)OC(C)(C)C3)c2)nc1-c1ccc(C(=O)NCC#N)cc1 [Example 113, N-(cyanomethyl)-4-(5-methyl-2-((1-(2,2,6,6-tetramethyltetrahydro-2H-pyran-4-yl)-1H-pyrazol-4-yl)amino)pyrimidin-4-yl)benzamide]
0.0433 µM | 0.00864 µM |  | 0.00279 µM |  | 0.0314 µM |  | C[C@@H](C#N)NC(=O)c1ccc(-c2nc(Nc3cnn(C4CC4)c3)ncc2Cl)cc1 [Example 111, (S)-4-(5-Chloro-2-((1-cyclopropyl-1H-pyrazol-4-yl)amino)pyrimidin-4-yl)-N-(1-cyanoethyl)benzamide]
0.065 µM | 0.00594 µM |  | 0.00116 µM |  |  |  | C[C@@H](C#N)NC(=O)c1ccc(-c2nc(Nc3cnn(C4CCNCC4)c3)ncc2Cl)cc1 [Example 165, (S)-4-(5-chloro-2-((1-(piperidin-4-yl)-1H-pyrazol-4-yl)amino)pyrimidin-4-yl)-N-(1-cyanoethyl)benzamide]
0.00134 µM | 0.00061 µM |  | 0.00037 µM |  |  |  | CC[C@@H](C#N)NC(=O)c1ccc(-c2nc(Nc3cnn(C4CCN(C)CC4)c3)ncc2C)cc1 [Example 184, (S)—N-(1-Cyanopropyl)-4-(5-methyl-2-((1-(1-methylpiperidin-4-yl)-1H-pyrazol-4-yl)amino)pyrimidin-4-yl)benzamide]
0.0528 µM | 0.00581 µM |  | 0.00473 µM |  | 0.0348 µM |  | CC[C@@H](C#N)NC(=O)c1ccc(-c2nc(Nc3cnn(C4CC4)c3)ncc2Cl)cc1 [Example 61, (S)-4-(5-chloro-2-((1-cyclopropyl-1H-pyrazol-4-yl)amino)pyrimidin-4-yl)-N-(1-cyanopropyl)benzamide]
0.0589 µM | 0.00729 µM |  | 0.00448 µM |  | 0.0253 µM |  | N#CCNC(=O)c1ccc(-c2nc(Nc3cnn(C4CC4)c3)ncc2Cl)cc1 [Example 95, 4-(5-Chloro-2-((1-cyclopropyl-1H-pyrazol-4-yl)amino)pyrimidin-4-yl)-N-(cyanomethyl)benzamide]
> 5 µM | > 5 µM |  | > 5 µM | 0.03 µM | > 5 µM |  | CNC(=O)c1ccc(-c2nc(Nc3cnn(C)c3)ncc2C)cc1 [Example 10, N-Methyl-4-(5-methyl-2-((1-methyl-1H-pyrazol-4-yl)amino)pyrimidin-4-yl)benzamide]
0.00229 µM | 0.00195 µM |  | 0.00042 µM |  |  |  | CC[C@@H](C#N)NC(=O)c1ccc(-c2nc(Nc3cnn(C4CCNCC4)c3)ncc2Cl)cc1 [Example 183, (S)-4-(5-chloro-2-((1-(piperidin-4-yl)-1H-pyrazol-4-yl)amino)pyrimidin-4-yl)-N-(1-cyanopropyl)benzamide]
